Test results: patent publication US20260092071A1, “COMPOUNDS AND COMPOSITIONS AS SMARCA2/4 DEGRADERS AND USES THEREOF” (REGENTS OF THE UNIVERSITY OF MICHIGAN, priority 2022, published 2026)

Columns and labels:
[1] = molecular target: SMARCA2 (Homo sapiens, UniProt P51531); experiment: HiBiT assay for protein degradation, Hela SMARCA2-HiBiT cells (A series); type: cell-based; design: Hela cells were genetically modified via CRISPR/Cas9 to fuse HiBiT to the carboxy terminus of SMARCA2; host or cells: HeLa (CRISPR/Cas9 HiBiT knock-in); conditions: Hela SMARCA2-HiBiT cells, 24 hours treatment; for DC50: read-out: SMARC A2 Hela HiBit DC50; for Dmax: read-out: SMARC A2 Hela HiBit Dmax (%);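 for SMARC A2 Hela HiBit Dmax (%): 24 h compound treatment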
Chain of SMARCA2 (P51531 whole entry): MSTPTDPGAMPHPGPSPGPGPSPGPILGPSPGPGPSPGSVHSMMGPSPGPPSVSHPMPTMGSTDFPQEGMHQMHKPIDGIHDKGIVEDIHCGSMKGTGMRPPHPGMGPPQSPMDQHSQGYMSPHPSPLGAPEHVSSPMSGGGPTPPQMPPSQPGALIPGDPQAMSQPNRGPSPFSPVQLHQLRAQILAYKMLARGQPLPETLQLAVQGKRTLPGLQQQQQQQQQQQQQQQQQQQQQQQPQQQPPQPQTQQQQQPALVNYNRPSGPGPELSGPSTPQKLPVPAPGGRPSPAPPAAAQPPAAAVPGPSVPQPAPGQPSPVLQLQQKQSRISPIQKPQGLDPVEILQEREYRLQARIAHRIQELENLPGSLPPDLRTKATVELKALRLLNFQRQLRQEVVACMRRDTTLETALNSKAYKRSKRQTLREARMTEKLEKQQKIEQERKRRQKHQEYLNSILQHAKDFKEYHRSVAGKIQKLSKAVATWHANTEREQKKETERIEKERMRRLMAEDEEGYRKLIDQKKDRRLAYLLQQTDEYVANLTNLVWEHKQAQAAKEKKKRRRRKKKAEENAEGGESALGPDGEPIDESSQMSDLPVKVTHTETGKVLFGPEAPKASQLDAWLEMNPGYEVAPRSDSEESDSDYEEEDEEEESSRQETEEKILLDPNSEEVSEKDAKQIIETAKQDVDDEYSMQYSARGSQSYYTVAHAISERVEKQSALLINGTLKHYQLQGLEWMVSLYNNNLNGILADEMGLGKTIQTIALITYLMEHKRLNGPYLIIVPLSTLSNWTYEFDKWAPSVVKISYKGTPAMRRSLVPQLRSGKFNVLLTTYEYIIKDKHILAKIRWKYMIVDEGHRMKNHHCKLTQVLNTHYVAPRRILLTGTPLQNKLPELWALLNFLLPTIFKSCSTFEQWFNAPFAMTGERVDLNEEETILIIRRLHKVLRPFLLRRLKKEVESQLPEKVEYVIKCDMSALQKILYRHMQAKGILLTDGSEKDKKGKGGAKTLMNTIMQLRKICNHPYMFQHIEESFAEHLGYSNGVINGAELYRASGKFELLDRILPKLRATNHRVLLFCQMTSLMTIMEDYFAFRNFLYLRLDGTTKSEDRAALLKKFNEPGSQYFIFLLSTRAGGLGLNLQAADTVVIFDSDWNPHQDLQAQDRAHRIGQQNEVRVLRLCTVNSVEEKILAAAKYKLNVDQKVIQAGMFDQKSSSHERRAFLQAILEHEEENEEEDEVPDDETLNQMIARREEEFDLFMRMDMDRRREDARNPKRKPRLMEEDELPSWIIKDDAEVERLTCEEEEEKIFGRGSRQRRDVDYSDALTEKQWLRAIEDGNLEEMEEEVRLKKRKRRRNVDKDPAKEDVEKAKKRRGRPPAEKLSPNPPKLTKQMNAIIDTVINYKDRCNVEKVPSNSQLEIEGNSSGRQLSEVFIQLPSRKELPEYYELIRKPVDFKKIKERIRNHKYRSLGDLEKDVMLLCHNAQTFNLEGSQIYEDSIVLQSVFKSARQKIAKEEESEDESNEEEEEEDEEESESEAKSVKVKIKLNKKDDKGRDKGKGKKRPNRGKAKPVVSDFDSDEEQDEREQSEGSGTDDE
How it was run: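 SMARCA2 degradation was measured in HeLa cells whose endogenous SMARCA2 carries a carboxy-terminal HiBiT tag introduced by CRISPR/Cas9 (Promega CS302365). Cells were maintained in DMEM with FBS and penicillin-streptomycin. SMARCA2 levels were read at the end of the experiment by Nano-Glo® HiBiT lytic luminescence (Promega N3050) and analyzed in GraphPad Prism.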

[2] = molecular target: SMARCA4 (Homo sapiens, UniProt P51532); experiment: HiBiT assay for protein degradation, Hela SMARCA4-HiBiT cells (A series); type: cell-based; design: fuse HiBiT to the carboxy terminus of SMARCA2 (Promega CS302365) or SMARCA4 (Promega CS3023225); host or cells: HeLa (CRISPR/Cas9 HiBiT knock-in); conditions: Hela SMARCA4-HiBiT cells, 24 hours treatment; for DC50: read-out: SMARC A4 Hela HiBit DC50; for Dmax: read-out: SMARC A4 Hela HiBit Dmax
Chain of SMARCA4 (P51532 whole entry): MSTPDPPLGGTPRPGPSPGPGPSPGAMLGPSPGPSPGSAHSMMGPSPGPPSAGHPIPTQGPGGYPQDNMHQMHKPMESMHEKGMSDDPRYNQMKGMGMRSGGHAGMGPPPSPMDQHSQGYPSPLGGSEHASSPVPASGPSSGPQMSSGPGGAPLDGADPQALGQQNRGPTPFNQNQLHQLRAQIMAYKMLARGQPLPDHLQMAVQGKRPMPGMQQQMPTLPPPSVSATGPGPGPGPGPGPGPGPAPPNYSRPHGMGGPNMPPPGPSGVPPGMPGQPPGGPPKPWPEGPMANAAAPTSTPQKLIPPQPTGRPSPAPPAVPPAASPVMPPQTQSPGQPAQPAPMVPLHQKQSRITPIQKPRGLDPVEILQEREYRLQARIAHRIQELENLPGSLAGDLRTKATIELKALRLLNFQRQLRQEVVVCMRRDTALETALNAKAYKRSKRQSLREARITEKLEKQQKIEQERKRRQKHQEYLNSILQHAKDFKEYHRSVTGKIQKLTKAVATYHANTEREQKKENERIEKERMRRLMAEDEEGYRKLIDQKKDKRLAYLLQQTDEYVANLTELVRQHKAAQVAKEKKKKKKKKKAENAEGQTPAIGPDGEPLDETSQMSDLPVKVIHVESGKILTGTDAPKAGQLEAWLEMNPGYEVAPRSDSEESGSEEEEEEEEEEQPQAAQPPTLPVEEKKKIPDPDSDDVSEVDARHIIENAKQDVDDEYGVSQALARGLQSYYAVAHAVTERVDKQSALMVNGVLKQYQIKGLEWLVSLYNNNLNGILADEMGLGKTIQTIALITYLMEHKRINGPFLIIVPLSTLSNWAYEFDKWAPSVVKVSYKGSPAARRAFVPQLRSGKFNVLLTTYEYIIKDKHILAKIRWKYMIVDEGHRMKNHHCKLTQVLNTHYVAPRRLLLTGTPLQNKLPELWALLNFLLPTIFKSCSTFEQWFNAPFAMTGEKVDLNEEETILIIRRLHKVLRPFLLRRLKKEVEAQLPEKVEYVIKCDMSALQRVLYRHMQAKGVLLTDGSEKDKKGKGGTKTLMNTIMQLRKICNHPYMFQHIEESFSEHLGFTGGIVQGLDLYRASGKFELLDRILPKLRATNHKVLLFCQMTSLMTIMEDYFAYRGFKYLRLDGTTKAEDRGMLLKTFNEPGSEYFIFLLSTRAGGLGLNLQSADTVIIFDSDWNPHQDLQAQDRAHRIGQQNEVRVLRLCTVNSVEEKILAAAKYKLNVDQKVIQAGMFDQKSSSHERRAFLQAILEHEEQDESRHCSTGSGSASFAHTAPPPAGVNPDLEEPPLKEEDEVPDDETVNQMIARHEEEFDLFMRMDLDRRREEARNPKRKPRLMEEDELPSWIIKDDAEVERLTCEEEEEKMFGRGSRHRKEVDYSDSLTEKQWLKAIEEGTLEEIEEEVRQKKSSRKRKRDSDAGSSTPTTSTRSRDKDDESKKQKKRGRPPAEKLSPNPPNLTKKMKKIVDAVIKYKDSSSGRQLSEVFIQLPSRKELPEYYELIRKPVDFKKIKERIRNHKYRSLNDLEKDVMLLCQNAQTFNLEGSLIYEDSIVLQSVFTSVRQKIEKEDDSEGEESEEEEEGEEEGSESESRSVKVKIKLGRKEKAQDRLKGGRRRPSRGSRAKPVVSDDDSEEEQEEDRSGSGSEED
How it was run: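 SMARCA4 degradation was measured in HeLa cells in which HiBiT had been knocked into the SMARCA4 carboxy terminus via CRISPR/Cas9 (Promega CS3023225). Cells were maintained in DMEM with FBS and penicillin-streptomycin. At the end of treatment, SMARCA4 levels were read by lytic HiBiT luminescence (Nano-Glo®, Promega N3050), and data were analyzed with GraphPad Prism.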

SMILES	DC50 [1] [nM]	Dmax [1] [%]	DC50 [2] [nM]	Dmax [2] [%]
Cc1ncsc1-c1ccc([C@H](CC(=O)N2CCC(c3ccc4c(c3)-n3c(nc(=O)c5c(Cl)cccc53)C43CCCCC3)CC2)NC(=O)[C@@H]2C[C@@H](O)CN2C(=O)[C@@H](n2cc(C3CC3)nn2)C(C)(C)C)cc1 [Compound A140, (2S,4R)—N—((S)-3-(4-(4′-chloro-5′-oxo-5′H-spiro[cyclohexane-1,7′-indolo[1,2-a]quinazolin]-10′-yl)piperidin-1-yl)-1-(4-(4-methylthiazol-5-yl)phenyl)-3-oxopropyl)-1-((S)-2-(4-cyclopropyl-1H-1,2,3-triazol-1-yl)-3,3-dimethylbutanoyl)-4-hydroxypyrrolidine-2-carboxamide]	10 to 100	70 to 90	> 1000	< 50
Cc1ncsc1-c1ccc([C@H](CC(=O)N2CCC(N3CCC(c4ccc5c(c4)-n4c(nc(=O)c6c(Cl)cccc64)C54CCCCC4)CC3)CC2)NC(=O)[C@@H]2C[C@@H](O)CN2C(=O)[C@@H](n2cc(C3CC3)nn2)C(C)(C)C)cc1 [Compound A143, (2S,4R)—N—((S)-3-(4-(4′-chloro-5′-oxo-5′H-spiro[cyclohexane-1,7′-indolo[1,2-a]quinazolin]-10′-yl)-[1,4′-bipiperidin]-1′-yl)-1-(4-(4-methylthiazol-5-yl)phenyl)-3-oxopropyl)-1-((S)-2-(4-cyclopropyl-1H-1,2,3-triazol-1-yl)-3,3-dimethylbutanoyl)-4-hydroxypyrrolidine-2-carboxamide]	10 to 100	70 to 90	100 to 1000	50 to 69
Cc1ncsc1-c1ccc([C@H](CC(=O)O)NC(=O)[C@@H]2C[C@@H](O)CN2C(=O)[C@@H](n2cc([C@H]3CC[C@H](CN4CCC(c5ccc6c(c5)-n5c(nc(=O)c7c(Cl)cccc75)C65CCCCC5)CC4)CC3)nn2)C(C)(C)C)cc1 [Compound A146, (S)-3-((2S,4R)-1-((S)-2-(4-((1r,4S)-4-((4-(4′-chloro-5′-oxo-5′H-spiro[cyclohexane-1,7′-indolo[1,2-a]quinazolin]-10′-yl)piperidin-1-yl)methyl)cyclohexyl)-1H-1,2,3-triazol-1-yl)-3,3-dimethylbutanoyl)-4-hydroxypyrrolidine-2-carboxamido)-3-(4-(4-methylthiazol-5-yl)phenyl) propanoic acid]	10 to 100	70 to 90	> 1000	< 50
COCCOCCOCCOCCOC[C@H](NC(=O)[C@@H]1C[C@@H](O)CN1C(=O)[C@@H](n1cc([C@H]2CC[C@H](CN3CCC(c4ccc5c(c4)-n4c(nc(=O)c6c(Cl)cccc64)C54CCCCC4)CC3)CC2)nn1)C(C)(C)C)c1ccc(-c2scnc2C)cc1 [Compound A149, (2S,4R)-1-((S)-2-(4-((1r,4S)-4-((4-(4′-chloro-5′-oxo-5′H-spiro[cyclohexane-1,7′-indolo[1,2-a]quinazolin]-10′-yl)piperidin-1-yl)methyl)cyclohexyl)-1H-1,2,3-triazol-1-yl)-3,3-dimethylbutanoyl)-4-hydroxy-N—((R)-16-(4-(4-methylthiazol-5-yl)phenyl)-2,5,8,11,14-pentaoxahexadecan-16-yl)pyrrolidine-2-carboxamide]	< 10	> 90	> 1000	50 to 69

Now from value to compound:

DC50 [1] [nM]	Dmax [1] [%]	DC50 [2] [nM]	Dmax [2] [%]	SMILES
< 10	> 90	< 10	> 90	Cc1ncsc1-c1ccc([C@H](CC(=O)N2CCC(CN3CCC(c4ccc5c(c4)-n4c(nc(=O)c6c(Br)cccc64)C54CCCCC4)CC3)CC2)NC(=O)[C@@H]2C[C@@H](O)CN2C(=O)[C@@H](n2cc(C3CC3)nn2)C(C)(C)C)cc1 [Compound A141, (2S,4R)—N—((S)-3-(4-((4-(4′-bromo-5′-oxo-5′H-spiro[cyclohexane-1,7′-indolo[1,2-a]quinazolin]-10′-yl)piperidin-1-yl)methyl)piperidin-1-yl)-1-(4-(4-methylthiazol-5-yl)phenyl)-3-oxopropyl)-1-((S)-2-(4-cyclopropyl-1H-1,2,3-triazol-1-yl)-3,3-dimethylbutanoyl)-4-hydroxypyrrolidine-2-carboxamide]
< 10	> 90	< 10	70 to 90	Cc1ncsc1-c1ccc([C@H](CC(=O)N2CCC3(CCC(CN4CCC(c5ccc6c(c5)-n5c(nc(=O)c7c(Br)cccc75)C65CCCCC5)CC4)CC3)CC2)NC(=O)[C@@H]2C[C@@H](O)CN2C(=O)[C@@H](n2cc(C3CC3)nn2)C(C)(C)C)cc1 [Compound A142, (2S,4R)—N—((S)-3-(9-((4-(4′-bromo-5′-oxo-5′H-spiro[cyclohexane-1,7′-indolo[1,2-a]quinazolin]-10′-yl)piperidin-1-yl)methyl)-3-azaspiro[5.5]undecan-3-yl)-1-(4-(4-methylthiazol-5-yl)phenyl)-3-oxopropyl)-1-((S)-2-(4-cyclopropyl-1H-1,2,3-triazol-1-yl)-3,3-dimethylbutanoyl)-4-hydroxypyrrolidine-2-carboxamide]
< 10	> 90	10 to 100	70 to 90	Cc1ncsc1-c1ccc([C@H](CC(=O)N2CCC3(CCC(N4CCC(c5ccc6c(c5)-n5c(nc(=O)c7c(Br)cccc75)C65CCCCC5)CC4)CC3)CC2)NC(=O)[C@@H]2C[C@@H](O)CN2C(=O)[C@@H](n2cc(C3CC3)nn2)C(C)(C)C)cc1 [Compound A144, (2S,4R)—N—((S)-3-(9-(4-(4′-bromo-5′-oxo-5′H-spiro[cyclohexane-1,7′-indolo[1,2-a]quinazolin]-10′-yl)piperidin-1-yl)-3-azaspiro[5.5]undecan-3-yl)-1-(4-(4-methylthiazol-5-yl)phenyl)-3-oxopropyl)-1-((S)-2-(4-cyclopropyl-1H-1,2,3-triazol-1-yl)-3,3-dimethylbutanoyl)-4-hydroxypyrrolidine-2-carboxamide]
< 10	> 90	> 1000	50 to 69	COC(=O)C[C@H](NC(=O)[C@@H]1C[C@@H](O)CN1C(=O)[C@@H](n1cc([C@H]2CC[C@H](CN3CCC(c4ccc5c(c4)-n4c(nc(=O)c6c(Cl)cccc64)C54CCCCC4)CC3)CC2)nn1)C(C)(C)C)c1ccc(-c2scnc2C)cc1 [Compound A145, methyl(S)-3-((2S,4R)-1-((S)-2-(4-((1r,4S)-4-((4-(4′-chloro-5′-oxo-5′H-spiro[cyclohexane-1,7′-indolo[1,2-a]quinazolin]-10′-yl)piperidin-1-yl)methyl)cyclohexyl)-1H-1,2,3-triazol-1-yl)-3,3-dimethylbutanoyl)-4-hydroxypyrrolidine-2-carboxamido)-3-(4-(4-methylthiazol-5-yl)phenyl) propanoate]
< 10	> 90	> 1000	50 to 69	Cc1ncsc1-c1ccc([C@H](CC(=O)N(C)C)NC(=O)[C@@H]2C[C@@H](O)CN2C(=O)[C@@H](n2cc([C@H]3CC[C@H](CN4CCC(c5ccc6c(c5)-n5c(nc(=O)c7c(Cl)cccc75)C65CCCCC5)CC4)CC3)nn2)C(C)(C)C)cc1 [Compound A147, (2S,4R)-1-((S)-2-(4-((1r,4S)-4-((4-(4′-chloro-5′-oxo-5′H-spiro[cyclohexane-1,7′-indolo[1,2-a]quinazolin]-10′-yl)piperidin-1-yl)methyl)cyclohexyl)-1H-1,2,3-triazol-1-yl)-3,3-dimethylbutanoyl)-N—((S)-3-(dimethylamino)-1-(4-(4-methylthiazol-5-yl)phenyl)-3-oxopropyl)-4-hydroxypyrrolidine-2-carboxamide]
< 10	> 90	> 1000	50 to 69	COCCOCCOCCOC[C@H](NC(=O)[C@@H]1C[C@@H](O)CN1C(=O)[C@@H](n1cc([C@H]2CC[C@H](CN3CCC(c4ccc5c(c4)-n4c(nc(=O)c6c(Cl)cccc64)C54CCCCC4)CC3)CC2)nn1)C(C)(C)C)c1ccc(-c2scnc2C)cc1 [Compound A148, (2S,4R)-1-((S)-2-(4-((1r,4S)-4-((4-(4′-chloro-5′-oxo-5′H-spiro[cyclohexane-1,7′-indolo[1,2-a]quinazolin]-10′-yl)piperidin-1-yl)methyl)cyclohexyl)-1H-1,2,3-triazol-1-yl)-3,3-dimethylbutanoyl)-4-hydroxy-N—((R)-13-(4-(4-methylthiazol-5-yl)phenyl)-2,5,8,11-tetraoxatridecan-13-yl)pyrrolidine-2-carboxamide]
